Entries after “also recorded” stand apart in the source; their conditions may differ. Like-named read-outs stand apart in the source and are kept apart here.
Columns and labels:
[1] = system: Wnt induced calcium release; assay: Wnt induced [Ca2+]i release after preincubation with thapsigargin or membrane potential regulating compounds; type: cell-based
Procedure: The imaging protocol was developed in the inventor's laboratory and has been described in detail, elsewhere (Wang at al., (2010) PLoS ONE 5, e10456). Briefly, 100000-200000 PC3, MCF7, 253J or Cos 7 cells were plated on 35 mm FluoroDish (WPI) and grown for 48 h; calcium indicators Fluo-4 (Invitrogen) and FuraRed (Invitrogen) at 1 ng/ml were added to FluoroDish containing only 1 ml of culture medium and incubated for 15-20 min at 37° C. The culture medium was removed and washed (×2) and replaced with 1 ml PBS. Live cell calcium Imaging was performed on an Olympus FluoView FV 1000 confocal microscope (Olympus KeyMed) equipped with a 20× dry objective (numerical aperture=0.75). Calcium indicators were excited with an argon laser line (488 nm) and emissions recorded in the green channel (500-560 nm) for Fluo-4 and red channel (600-700 nm) for FuraRed after addition of vehicle control (PBS) or Wnt X (30-600 ng/ml). Images were acquired every 1.1 or 2.2 seconds for up to 600-800s; image and data acquisition was performed using FluoView 1000 software (Olympus, UK). Fluorescent intensity was measured and data exported as a tab delimited file for further analysis using a spreadsheet. All imaging experiments were performed in duplicate; intracellular calcium at 100 ng/ml was measured in at least 3-12 different passages (passage numbers 25 to 37) of cell line for each Wnt ligand. Wnt 11 was tested in at least 5 different passages at 3 different concentrations. […]
To measure the effect of changes in membrane potential on [Ca^2+]i release using the protocol described above, in some experiments, external solution (PBS) was substituted with varying concentrations of KCl. In other experiments chemical inhibitors of K^+ channels such as TEA, CsCl or tolbutamide (Sigma-Aldrich) were added to the cells grown on FluoroDish, at 37° C., at least 5 min prior to addition of Wnt ligands.
After image acquisition, regions of interest (ROI) were drawn over individual PC3 cells (up to 25) in a single frame and calcium intensity measurements were made using FluoView 1000 software (Olympus, UK). The measurements were exported as a tab delimited file into a spreadsheet for further analysis and Fluo4/Fura Red ratios were calculated. The waveform, a product of the ratio of Fluo4 and FuraRed over the period of measurement was used to measure the kinetics of the activation of [Ca^2+]i release in PC3 cells, in response to different Wnt ligands. The time constants (rise, dwell and fall times) were calculated by first fitting the Fluo4/FuraRed ratio to a single Gaussian function (Origin Lab Corp., MA); a lower (10%) and upper (90%) amplitude thresholding method was then used to calculate the time constants (s). Statistical significance was calculated using Mann Whitney U test.

[2] = system: β-catenin translocation to the nucleus; assay: β-catenin immunocytochemistry and nuclear co-localization analysis, PC3; type: cell-based; conditions: PC3 cells, K+ channel inhibitors 1-15 mM, Wnt5A and 9B
Procedure: Immunostaining was performed in two different laboratories, independently with the experimenter blind to the identity of the treatment. Either cells used in FluoroDish, post [Ca^2+]i experiments using dyes (see above) or grown in 8 well chamber glass slides (Lab Tek II, Nunc) were used. For Wnt ligand treatment, the culture medium replaced with PBS (without calcium) at 37° C. The experiments were replicated for Wnt ligand or vehicle control as described for [Ca^2+]i measurements. Briefly, Wnt ligands were added and chamber slides incubated at 37° C. for up to 20 min. Chamber wells were washed 3× with 0.5 ml PBS and cells were fixed with 0.5 ml 4% formalin for 30 min at 4° C. Cells were washed 3× with ice cold PBS and stored in 0.5 ml PBS at 4° C. for immunostaining. In some experiments PC3 cells were treated with thaspsigargin as described above.
For immunostaining cells were washed twice for 5 minutes in TBST (20 mM Tris pH 7.4, 0.9% NaCl, 0.1% Tween 20, Sigma). Cells were then incubated in 20% normal goat serum (NGS)/TBST for 30 min at room temperature, the chambers were drained and cells were incubated with mouse anti-β-catenin (ab22656, Abcam, UK) at 1:500 dilution in NGS/TBST overnight at 4° C. Following two further 5 min washes in TBST sections were incubated in goat anti-mouse peroxidase fab (Abcam, UK) at 1:500 dilution for 30 min at room temperature. Following a further two 5 min washes in TBST cells were incubated with tyramide Cy3 (Perkin Elmer) for 10 min at room temperature. Sections were washed twice for 5 min in TBST before nuclear counterstaining with DAPI. After a final two 5 min washes, the chambers were removed and cover slip placed on slides using Permafluor (Thermo Shandon).
Fluorescence immunocytochemical staining for β-catenin expression in cell lines was imaged using Olympus Fluoview 1000 Confocal Microscope (Olympus KeyMed) mounted on an Olympus IX81 inverted microscope using a 20×0.7 NA or 40×1.0 NA dry objective with a zoom of ×3.4′,6-diamidino-2-phenylindole (DAPI, nuclear counterstain) was excited at 405 nm with an emission of 415-500 nm; Cy3 (β-catenin label) signal was excited at 561 nm with an emission spectrum between 570-670 nm. […] Z-stacks of at least 3 fields per sample were imaged and saved in Olympus FV (OIF or OIB) file format.
Nuclear co-localization of β-catenin was calculated by importing FV files for untreated, control or treated cells, into colocalization plugin of Fiji software (http://fiji.sc/Fiji) for Cy3 (β-catenin) and DAPI (nuclear) signals. Pearson co-relation of colocalization were tabulated for 25-90 cells (from 2-5 different passages of cells) using ROI analysis. Statistical significance between untreated and treated cells was calculated using Mann Whitney U test.

[3] = system: PC3 prostate cancer cell line; assay: Cell proliferation assay, live imaging (Incucyte), PC3; type: cell-based
Procedure: Growth curve was monitored at 37° C. in a CO2 incubator by using time lapse imaging with Incucyte (Essen Biosciences) for up to 150 h after plating the cells (t=o) at a density of 25-100 k cells per well in a 6 well plate (Nunc). MPRCs were added at the stated concentrations 24 h after cell plating;
A live imaging system (Incucyte, EssenBiosciences) was used to measure the effect of K^+ channel inhibitors on the rate of cell proliferation. PC3 cells were plated on 6 well plates (Nunc) in 3 ml culture medium (Wang et al (2010) PLoS ONE 5, e10456); K^+ channel inhibitors were added to the wells at 0-15 mM. The plates were placed in Incucyte in a standard cell culture incubator at 37° C. and CO2. Each well was imaged at an interval of up to 4 h and rate of cell proliferation was calculated from these images using Incucyte software.

[4] = system: MCF7 breast cancer cell line; assay: Cell growth, time lapse imaging (Incucyte), MCF7; type: cell-based, human; conditions: MCF7 cells, nicorandil shown as an example
Procedure: Growth curve was monitored at 37° C. in a CO2 incubator by using time lapse imaging with Incucyte (Essen Biosciences) for up to 150 h after plating the cells (t=o) at a density of 25-100 k cells per well in a 6 well plate (Nunc). MPRCs were added at the stated concentrations 24 h after cell plating.

[5] = preincubation 5 min, Wnt 9B 0.1 μg/ml as example, CsCl 5 mM, CdCl2 1 mM, TEA 10 mM, Amiodarone 75 μM, Tolbutamide 1 mM, Isradipine 100 μM, Nifedipine 1 mM, Minoxidil 25 μM, Atenolol 37.5 μM, Propanolol 50 μM, Furosemide 150 μM
[6] = PC3 cells, inhibitors at 0-15 mM

| SMILES | Wnt ligand induced calcium release after preincubation with MPRC (FIG. 16) [1, 5] | Wnt mediated β-catenin stabilization and translocation to the nucleus (FIG. 11) [2] | rate of cell proliferation (confluence of cell growth, FIG. 12) [3, 6] | further results |
| --- | --- | --- | --- | --- |
| [Cl-].[Cs+] [CsCl] | inhibited | reduced | inhibit proliferation | – |
| O=C(NCCO[N+](=O)[O-])c1cccnc1 [Nicorandil] | – | – | – | Wnt signaling measured using intracellular calcium release (FIG. 22 A and B) [1]: do not inhibit; cell proliferation (FIG. 22 C) ([3]; PC3 cells, Incucyte, nicorandil shown as an example): do not inhibit; cell proliferation (FIG. 22 D) [4]: do not inhibit |
| CC(C)NCC(O)COc1cccc2ccccc12 (stereo not drawn) [Propanolol] | inhibited | – | – | – |
| CC[N+](CC)(CC)CC [TEA, tetraethylammonium] | – | reduced; also recorded: biggest reduction | – | Wnt induced [Ca2+]i release after pre-incubation with K+ channel blocker (FIG. 11) [1]: reduced; also recorded: abolished; Wnt ligand induced calcium release after preincubation with MPRC (FIG. 16) [1]: inhibited; rate of cell proliferation (confluence of cell growth, FIG. 12) [3]: inhibit proliferation |
| CCCCNC(=O)NS(=O)(=O)c1ccc(C)cc1 [Tolbutamide] | inhibited | reduced; also recorded: inhibition | inhibit proliferation | rate of cell proliferation (confluence of cell growth, FIG. 12) ([3]; PC3 cells, inhibitors at 0-15 mM, listed as tolbutamide): inhibition |

— US20160271157A1, “BETA-CATENIN” (UCL BUSINESS PLC, priority 2013, published 2016)
